Experiments:
[1] = system: Wistar rats fed a NS or HS diet for 3 weeks; assay: MAP and HR responses to bolus CAPZ in conscious rats (3-week diet); format: in vivo, rat; conditions: for peak increase in MAP: CAPZ 3 mg/kg bolus, conscious
Source text: Animal Preparation: Experiments were approved by the institutional Animals Care and Use Committee. Male Wistar rats (6 weeks old, Charles River Laboratory, Wilmington, Mass.) were housed in a temperature-controlled room with a 12:12-hour light/dark cycle. Rats were selected randomly to receive either a normal-sodium diet (NS, 0.4% of Na^+ by weight) or a HS diet (HS, 4% of Na^+ by weight) for 3 weeks. The diets were purchased from Harlan Teklad. All rats drank water ad libitum throughout the experiment.
Surgical Preparation The rats were anesthetized with ketamine and xylazine (80 and 4 mg/kg ip, respectively) for implantation of artery and vein catheters. The left jugular vein and carotid artery were cannulated for administration of drugs or for monitoring of mean arterial pressure (MAP) and heart rate (HR) with a Statham 231D pressure transducer coupled to a Gould 2400s recorder (Gould Instruments, Dayton, Ohio, USA). For conscious animal experiments, catheters were routed subcutaneously and exteriorized between the scapulae. Rats were quietly brought to home cages 3 hours after surgery, and MAP and HR were continuously recorded. Regular room light was turned on during experiments. The rats were allowed to acclimate to their surroundings for 15-30 minutes in their cages, i.e., until which time they ceased exploring the new environment and their blood pressures stabilized. Baseline MAP and HR were recorded for 15 minutes before administration of drugs (Supowit et al., 1997; Wang and Wang, 2004).
Protocol 1: To determine whether the TRPV1 is tonically activated during HS intake, rats fed a NS or HS diet were randomly assigned to 2 groups for intravenous injection of CAPZ (3 mg/kg), a selective TRPV1 antagonist, in conscious states.

[2] = system: WT hearts; assay: Preconditioning (PC) protection against I/R in Langendorff hearts with receptor antagonists, wild type; parameters: species or system mouse
Procedure: Male TRPV1 gene knockout (TRPV1-/-) strain B6.129S[…][…]^tm1Jul and matching control wild type (WT) strain C57BL/6J mice were used (Jackson Laboratory, Bar Harbor, Me.). Mice were heparinized (500 U/kg i.p.) and anesthetized with pentobarbital sodium (50 mg/kg i.p.). […] The distal end of the catheter was connected to a […] Performance Analyzer via a pressure transducer. Coronary flow (CF) was continuously measured using an ultrasonic flow probe placed in the aortic perfusion line. Hearts were paced at 400 bpm except during ischemic PC and sustained global ischemia to avoid inducing excessive ventricular tachyarrhythmia during reperfusion, and pacing was reinitiated 2 minutes after reperfusion. Left ventricular developed pressure (LVDP, peak systolic minuses LVEDP) and LV peak positive […]) during isovolumic contraction were used as indices of LV systolic function; LVEDP and the peak negative […] used as indices of LV diastolic function. […] Non-preconditioned hearts were time-matched perfused with the same duration as that of preconditioned hearts. Group 1: Controls. As normal controls (nonischemic), WT and TRPV1-/- hearts were perfused for 130 minutes. For I/R controls, WT and TRPV1-/- hearts were first perfused with Krebs-Henseleit buffer for 55 min (time-matched perfusion of the equilibration period plus the PC period), and subsequently subjected to 30 minutes of no-flow normothermic global ischemia followed by 40-minutes of reperfusion. Group 2: PC. […] The hearts were subjected to 30 minutes of no-flow normothermic global ischemia followed by 40-minutes of reperfusion as that of I/R control groups. Group 3: PC plus capsazepine (CAPZ). […] Two additional concentrations of CAPZ, 10^-6M and 10^-8 M, were used in WT hearts. An additional drug control was added. After a 20-minute equilibration period, WT hearts were perfused with CAPZ (10^-7 M) for 10 minutes without PC, followed by perfusion with Krebs-Henseleit buffer for 25 minutes (time-matched perfusion of the PC period) and then subjected to I/R. Group 4: […] Two additional concentrations of CGRP8-37, 10^-5 M and 10^-7 M, were used in WT hearts. An additional drug control of CGRP8-37 was added as that of the CAPZ control group. Group 5: PC plus RP67580. To determine the role of endogenous SP during PC, hearts from WT and TRPV1-/-mice were perfused as that of CAPZ with RP67580 (10^-7 M), a selective neurokinin-1 (NK1) receptor antagonist. Two additional concentrations of RP67580, 10^-6 M and 10^-8 M, were used in WT hearts. An additional drug control of RP67580 was added as that of the CAPZ control group.

[3] = system: male Wistar rats; assay: Depressor effect of 20-HETE analog DSR given IV, with or without antagonists; format: in vivo, rat; conditions: DSR 1 mg/kg with CAPZ 3 mg/kg, RP67580 4 mg/kg or CGRP 8-37 3 mg/kg
[4] = system: renal tissues; assay: Capsaicin-induced CGRP release from renal tissues; parameters: species or system rat; conditions: capsazepine 10 mmol/l; all groups
Source text: N¼5,_P<0.05 versus vehicle, capsazepine plus capsaicin and capsazepine; †P<0.001 versus capsaicin of control rats with a normal sodium diet (Con-NS) and capsaicin of control rats with a high sodium diet (Con-HS). Vehicle; capsaicin; capsazepine and capsaicin; capsazepine.
To examine renal sensory nerve function, renal CGRP release after stimulation of the renal sensory nerves with capsaicin was examined.

effect on cardiac function in WT hearts without I/R [2]: no effect on cardiac function
effect on PC-induced cardiac protection (LVEDP, LVDP, CF, +dP/dt, −dP/dt) in WT hearts ([2]; CAPZ 10^−7 M, CGRP8-37 10^−6 M, RP67580 10^−7 M): abolished PC induced protection
Structure (SMILES): Oc1cc2c(cc1O)CN(C(=S)NCCc1ccc(Cl)cc1)CCC2 [CAPZ, N-[2-(4-Chlorophenyl)ethyl]-1,3,4,5-tetrahydro-7,8-dihydroxy-2H-2-benzazepine-2-carbothioamide]
peak increase in MAP ([1]; HS 3 weeks): 13±3 mmHg
peak increase in MAP ([1]; NS 3 weeks): 4±2 mmHg
duration of pressor action ([1]; CAPZ 3 mg/kg, HS): 6 to 7 min
time to peak MAP elevation after injection ([1]; CAPZ 3 mg/kg, HS): ≤ 2 min
change in HR ([1]; CAPZ 3 mg/kg, NS or HS): no significant change
DSR induced-depressor effect after antagonist [3]: 8.5±2.5 mmHg
effect on capsaicin-stimulated CGRP release [4]: blocked
